# Experimental data taken from ChEMBL document CHEMBL1201862, “PubChem BioAssay data set” (2004).
#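 These data come from cells grown in 96-well plates and exposed to compound for 48 hours at five concentrations. Here, GI50 denotes the concentration required for 50% inhibition of growth.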 Calls of active or inactive are those of the source. No stated cut-off is given here; in the data, active = GI50 up to about 1.1 µM and inactive = higher.
# Tests used:
# Experiment in all cases: DTP human tumour cell line panel, 48 h
# [1] = system: DU-145
# [2] = system: IGROV-1
# [3] = system: UACC-257
# [4] = system: OVCAR-5
# [5] = system: HCC 2998
# [6] = system: KM12
# [7] = system: A549
# [8] = system: HT-29
# [9] = system: MCF7
# [10] = system: ACHN
# [11] = system: NCI-H522
# [12] = system: HCT-116
# [13] = system: SK-MEL-5
# [14] = system: SNB-75
# [15] = system: COLO 205
# [16] = system: UACC-62
# [17] = system: M14
# [18] = system: SR
# [19] = system: SNB-19
# [20] = system: MDA-N
SMILES,GI50 [1],GI50 [2],GI50 [3],GI50 [4],GI50 [5],GI50 [6],GI50 [7],GI50 [8],GI50 [9],GI50 [10],GI50 [11],GI50 [12],GI50 [13],GI50 [14],GI50 [15],GI50 [16],GI50 [17],GI50 [18],GI50 [19],GI50 [20]
O=C1C=CC(=O)c2c(O)c(N(CCCl)CCCl)c(Cl)c(O)c21,> 8.63 µM (inactive),> 6.68 µM (inactive),3.3 µM (inactive),> 7.21 µM (inactive),> 8.91 µM (inactive),6.4 µM (inactive),> 9.71 µM (inactive),5.38 µM (inactive),5.07 µM (inactive),4.13 µM (inactive),3.74 µM (inactive),4.26 µM (inactive),4.59 µM (inactive),7.8 µM (inactive),3.94 µM (inactive),> 6.07 µM (inactive),4.37 µM (inactive),4.51 µM (inactive),> 10 µM (inactive),4.28 µM (inactive)
O=S(=O)(NNc1ccccc1)c1ccccc1,13.2 µM (inactive),10.2 µM (inactive),27.5 µM (inactive),17.1 µM (inactive),0.902 µM (active),1.66 µM (inactive),8.87 µM (inactive),11.5 µM (inactive),14.9 µM (inactive),0.662 µM (active),8.95 µM (inactive),13.2 µM (inactive),2.1 µM (inactive),40 µM (inactive),8.99 µM (inactive),0.481 µM (active),0.671 µM (active),11.2 µM (inactive),39.7 µM (inactive),12.2 µM (inactive)
COc1ccc(CNc2nc3cc(C(F)(F)F)ccc3nc2-c2ccccc2)cc1OC,87.5 µM (inactive),66.7 µM (inactive),28.4 µM (inactive),71.1 µM (inactive),22.6 µM (inactive),29.5 µM (inactive),26.9 µM (inactive),21.1 µM (inactive),16.1 µM (inactive),23.8 µM (inactive),36.1 µM (inactive),30.3 µM (inactive),17.9 µM (inactive),37.3 µM (inactive),35.1 µM (inactive),50.6 µM (inactive),49.3 µM (inactive),15.3 µM (inactive),> 100 µM (inactive),37.2 µM (inactive)
CC(C)S(=O)(=O)ON1C(=O)c2ccc(N(C)C)cc2C1=O,> 10 µM (inactive),20.8 µM (inactive),20.1 µM (inactive),18.8 µM (inactive),13.3 µM (inactive),21.4 µM (inactive),25 µM (inactive),22.8 µM (inactive),5.93 µM (inactive),15.6 µM (inactive),1.52 µM (inactive),14.8 µM (inactive),3.96 µM (inactive),19.6 µM (inactive),2.86 µM (inactive),15.5 µM (inactive),17.2 µM (inactive),2.38 µM (inactive),40.4 µM (inactive),4.01 µM (inactive)
